# Assay results: ChEMBL document CHEMBL2406999, “Vialinin A is a ubiquitin-specific peptidase inhibitor” (Bioorg Med Chem Lett, 2013)
# Residue numbers refer to the chain shown, from its start. Activity calls are given as the source filed them. The calls are words filed in the database; no cut-off is given here.
# Experiments:
# [1] = molecular target: Cathepsin B (Homo sapiens) (UniProt P07858); test: Inhibition of cathepsin B (unknown origin) at 6.3 uM after 20 mins by fluorometric analysis
# [2] = molecular target: T1, Ubiquitin carboxyl-terminal hydrolase 2 (Homo sapiens) (UniProt O75604); test: Inhibition of human USP2 using Ub-AMC as substrate at 1 to 30 uM after 60 mins by fluorometric analysis
# T1 sequence (whole entry): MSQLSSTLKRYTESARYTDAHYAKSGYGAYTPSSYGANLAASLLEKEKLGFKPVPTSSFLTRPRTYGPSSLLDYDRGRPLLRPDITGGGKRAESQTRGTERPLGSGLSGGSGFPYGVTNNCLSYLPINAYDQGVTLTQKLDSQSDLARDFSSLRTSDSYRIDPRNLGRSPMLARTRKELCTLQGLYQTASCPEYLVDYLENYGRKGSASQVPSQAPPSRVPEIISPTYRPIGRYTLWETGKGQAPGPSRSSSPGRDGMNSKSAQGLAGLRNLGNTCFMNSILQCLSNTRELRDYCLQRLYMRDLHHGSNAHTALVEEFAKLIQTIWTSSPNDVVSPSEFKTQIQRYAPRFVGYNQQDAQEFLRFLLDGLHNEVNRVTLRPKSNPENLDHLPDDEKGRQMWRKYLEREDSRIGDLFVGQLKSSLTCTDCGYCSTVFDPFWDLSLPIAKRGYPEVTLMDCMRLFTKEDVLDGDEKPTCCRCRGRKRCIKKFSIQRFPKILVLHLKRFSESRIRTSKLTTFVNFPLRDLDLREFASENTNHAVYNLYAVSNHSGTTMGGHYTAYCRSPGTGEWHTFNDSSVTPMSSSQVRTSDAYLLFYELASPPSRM
# [3] = molecular target: T2, Ubiquitin carboxyl-terminal hydrolase 5 (Homo sapiens, UniProt P45974); test: Competitive inhibition of wild type human USP5 expressed in Escherichia coli BL21(DE3) using Ub-AMC as substrate
# T2 sequence (P45974 whole entry): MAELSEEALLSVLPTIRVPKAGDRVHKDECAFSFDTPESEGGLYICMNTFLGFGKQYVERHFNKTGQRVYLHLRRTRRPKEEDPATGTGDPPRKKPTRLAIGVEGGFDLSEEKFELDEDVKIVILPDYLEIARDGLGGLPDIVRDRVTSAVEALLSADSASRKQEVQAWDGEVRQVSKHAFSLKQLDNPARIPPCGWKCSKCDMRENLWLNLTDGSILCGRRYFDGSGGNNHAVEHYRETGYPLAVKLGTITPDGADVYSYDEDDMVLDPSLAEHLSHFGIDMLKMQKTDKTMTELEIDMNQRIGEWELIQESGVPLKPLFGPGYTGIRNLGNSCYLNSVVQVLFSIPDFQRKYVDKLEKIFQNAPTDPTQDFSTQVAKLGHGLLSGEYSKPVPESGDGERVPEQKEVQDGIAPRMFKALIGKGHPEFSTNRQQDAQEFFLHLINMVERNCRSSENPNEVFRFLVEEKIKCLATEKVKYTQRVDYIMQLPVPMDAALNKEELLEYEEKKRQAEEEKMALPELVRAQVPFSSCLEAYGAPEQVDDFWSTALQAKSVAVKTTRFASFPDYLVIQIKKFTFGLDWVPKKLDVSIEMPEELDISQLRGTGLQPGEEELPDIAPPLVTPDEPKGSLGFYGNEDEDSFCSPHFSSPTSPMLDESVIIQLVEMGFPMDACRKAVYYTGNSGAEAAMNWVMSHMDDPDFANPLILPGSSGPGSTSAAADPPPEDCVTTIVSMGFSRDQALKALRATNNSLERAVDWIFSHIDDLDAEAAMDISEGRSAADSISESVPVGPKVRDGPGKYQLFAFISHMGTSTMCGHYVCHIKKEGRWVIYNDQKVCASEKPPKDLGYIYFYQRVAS
# [4] = molecular target: T2, Ubiquitin carboxyl-terminal hydrolase 5; test: Inhibition of wild type human USP5 expressed in Escherichia coli BL21(DE3) using Ub-AMC as substrate after 60 mins by fluorometric analysis
# [5] = tested on: T3, Ubiquitin carboxyl-terminal hydrolase 5 (Homo sapiens), P45974 [C335A]; test: Competitive binding affinity to human USP5 C335A mutant by SDS-PAGE analysis in presence of biotin-DMT
# T3 sequence (whole entry): T2 sequence (P45974 whole entry) with C335A
structure (smiles),measurement,setting,value
O=C(Cc1ccccc1)Oc1c(OC(=O)Cc2ccccc2)c(-c2ccc(O)cc2)c(O)c(O)c1-c1ccc(O)cc1 [VIALININ A],inhibition,[1],inactive
same,inhibition,[2],inactive
same,Ki,[3],12.5 µM
same,IC50,[4],5.9 µM
same,Ki,[4],4 µM
same,Activity,[5],inactive
